Data published in PubChem BioAssay AID1963866 (Molecular Pharmacology Branch, DTP, NCI, 2024).

System: PDC KRAS tumor spheroids with HUVEC/MSC, viability
Assay: Anticancer human tumor 349418-098-R-PDC patient-derived lung adenocarcinoma cell line growth inhibition [KRAS2]
Details: for IC50: curve of first compound; for viability, T/C: stronger effect = lower value
Summary of the method: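 KRAS-mutant tumor cells were grown as spheroids with HUVEC endothelial cells and human MSCs as stroma. Targeted agents were tested alone and with KRAS pathway inhibitors. Doses started at or near clinical Cmax, or 10 microM, descending half-log.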

[1] = second compound 0.1 µM, first compound 0.0316 µM
[2] = second compound 0.1 µM, first compound 0.1 µM
[3] = second compound 0.1 µM, first compound 0.316 µM
[4] = second compound 0.1 µM, first compound 1 µM
[5] = second compound 0.1 µM, first compound 3.16 µM
[6] = second compound 0.1 µM, first compound 10 µM
[7] = second compound 0.316 µM, first compound 0.0316 µM
[8] = second compound 0.316 µM, first compound 0.1 µM
[9] = second compound 0.316 µM, first compound 0.316 µM
[10] = second compound 0.316 µM, first compound 1 µM
[11] = second compound 0.316 µM, first compound 3.16 µM
[12] = second compound 0.316 µM, first compound 10 µM
[13] = second compound 1 µM, first compound 0.0316 µM
[14] = second compound 1 µM, first compound 0.1 µM
[15] = second compound 1 µM, first compound 0.316 µM
[16] = second compound 1 µM, first compound 1 µM
[17] = second compound 1 µM, first compound 3.16 µM
[18] = second compound 1 µM, first compound 10 µM
[19] = second compound 3.16 µM, first compound 0.0316 µM
[20] = second compound 3.16 µM, first compound 0.1 µM
[21] = second compound 3.16 µM, first compound 0.316 µM
[22] = second compound 3.16 µM, first compound 1 µM
[23] = second compound 3.16 µM, first compound 3.16 µM
[24] = second compound 3.16 µM, first compound 10 µM
[25] = second compound 10 µM, first compound 0.0316 µM
[26] = second compound 10 µM, first compound 0.1 µM
[27] = second compound 10 µM, first compound 0.316 µM
[28] = second compound 10 µM, first compound 1 µM
[29] = second compound 10 µM, first compound 3.16 µM
[30] = second compound 10 µM, first compound 10 µM
[31] = second compound 0.1 µM, first compound 0.01 µM
[32] = second compound 0.316 µM, first compound 0.01 µM
[33] = second compound 1 µM, first compound 0.01 µM
[34] = second compound 3.16 µM, first compound 0.01 µM
[35] = second compound 10 µM, first compound 0.01 µM
[36] = second compound 0.1 µM, first compound 0.00316 µM
[37] = second compound 0.316 µM, first compound 0.00316 µM
[38] = second compound 1 µM, first compound 0.00316 µM
[39] = second compound 3.16 µM, first compound 0.00316 µM
[40] = second compound 10 µM, first compound 0.00316 µM
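Also: spheroids exposed to compounds for seven days before readout.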

Structure (SMILES)	IC50 (second compound 0.1 µM) [nM]	IC50 (second compound 0.316 µM) [nM]	IC50 (second compound 1 µM) [nM]	IC50 (second compound 3.16 µM) [nM]	IC50 (second compound 10 µM) [nM]	viability, T/C [1] [%]	viability, T/C [2] [%]	viability, T/C [3] [%]	viability, T/C [4] [%]	viability, T/C [7] [%]	viability, T/C [8] [%]	viability, T/C [9] [%]	viability, T/C [10] [%]	viability, T/C [13] [%]	viability, T/C [14] [%]	viability, T/C [15] [%]	viability, T/C [19] [%]	viability, T/C [20] [%]	viability, T/C [25] [%]	viability, T/C [26] [%]	also measured
CC(C)NCC(C(=O)N1CCN(c2ncnc3c2C(C)CC3O)CC1)c1ccc(Cl)cc1 (stereo not given) + CNCc1ccccc1-c1csc(C(C)Nc2nc(C)nc3cc(OC)c(OC)cc23)c1	257	208	106	< 31.6	< 31.6	95	88	39.6	22.7	96.5	68.6	39.3	19.7	79.1	52.3	16.3	0.09	0.11	0.08	0.08	viability, T/C [5]: 14.1%; viability, T/C [6]: 6.42%; viability, T/C [11]: 12.6%; viability, T/C [12]: 6.01%; viability, T/C [16]: 9.95%; viability, T/C [17]: 1.69%; viability, T/C [18]: 3.8%; viability, T/C [21]: 0.03%; viability, T/C [22]: 0.03%; viability, T/C [23]: 0.27%; viability, T/C [24]: 0.09%; viability, T/C [27]: 0.07%; viability, T/C [28]: 0.25%; viability, T/C [29]: 0.07%; viability, T/C [30]: 0.13%
CC1COCCN1c1cc(-c2ccnn2C)c2ccnc(-c3ccn[nH]3)c2n1 (stereo not given) + CNCc1ccccc1-c1csc(C(C)Nc2nc(C)nc3cc(OC)c(OC)cc23)c1	25	29.9	18.5	< 10	< 10	33.4	10.6	7.11	5.04	47.1	11.1	5.41	4.13	13.4	3.84	4.41	0.21	0.12	0.07	0.07	viability, T/C [31]: 114%; viability, T/C [5]: 3.83%; viability, T/C [32]: 107%; viability, T/C [11]: 3.71%; viability, T/C [33]: 92.1%; viability, T/C [16]: 3.23%; viability, T/C [17]: 2.84%; viability, T/C [34]: 0.09%; viability, T/C [21]: 0.03%; viability, T/C [22]: 0.04%; viability, T/C [23]: 0.13%; viability, T/C [35]: 0.08%; viability, T/C [27]: 0.07%; viability, T/C [28]: 0.08%; viability, T/C [29]: 0.13%
CCN1CCN(Cc2ccc(Nc3ncc(F)c(-c4cc(F)c5nc(C)n(C(C)C)c5c4)n3)nc2)CC1 + CNCc1ccccc1-c1csc(C(C)Nc2nc(C)nc3cc(OC)c(OC)cc23)c1	7.79	3.7	< 3.16	< 3.16	< 3.16	21.4	14.4	11.6	3.5	15.1	16.1	10.9	2.1	4.86	5.28	2.85	4.57	0.17	0.06	0.1	viability, T/C [36]: 71%; viability, T/C [31]: 45.5%; viability, T/C [37]: 53.5%; viability, T/C [32]: 31.7%; viability, T/C [38]: 34.4%; viability, T/C [33]: 11.7%; viability, T/C [16]: 2.48%; viability, T/C [39]: 0.3%; viability, T/C [34]: 0.05%; viability, T/C [21]: 0.02%; viability, T/C [22]: 0.07%; viability, T/C [40]: 0.18%; viability, T/C [35]: 0.06%; viability, T/C [27]: 0.07%; viability, T/C [28]: 0.1%
CCNC(=O)CC1N=C(c2ccc(Cl)cc2)c2cc(OC)ccc2-n2c(C)nnc21 (stereo not given) + CNCc1ccccc1-c1csc(C(C)Nc2nc(C)nc3cc(OC)c(OC)cc23)c1	133	124	77.3	< 31.6	< 31.6	103	58.5	24.3	12.4	107	55.7	24.7	13.5	86.6	39.5	13.9	0.11	0.08	0.11	0.11	viability, T/C [5]: 2.7%; viability, T/C [6]: 1.11%; viability, T/C [11]: 2.81%; viability, T/C [12]: 1.21%; viability, T/C [16]: 4.94%; viability, T/C [17]: 0.98%; viability, T/C [18]: 0.31%; viability, T/C [21]: 0.04%; viability, T/C [22]: 0.02%; viability, T/C [23]: 0.01%; viability, T/C [24]: 0.08%; viability, T/C [27]: 0.09%; viability, T/C [28]: 0.09%; viability, T/C [29]: 0.08%; viability, T/C [30]: 0.28%
Cn1nccc1Nc1nccc(-c2cc3c(s2)C(C)(C)N(CCN2CCOCC2)C3=O)n1 + CNCc1ccccc1-c1csc(C(C)Nc2nc(C)nc3cc(OC)c(OC)cc23)c1	37.8	< 31.6	< 31.6	< 31.6	< 31.6	54.8	25.9	12.2	8.63	48.3	21.5	10.3	6.91	28.4	8.49	3.82	0.04	0.3	0.19	0.25	viability, T/C [5]: 5.95%; viability, T/C [6]: 4.72%; viability, T/C [11]: 6.22%; viability, T/C [12]: 3.95%; viability, T/C [16]: 2.34%; viability, T/C [17]: 1.92%; viability, T/C [18]: 1.22%; viability, T/C [21]: 0.06%; viability, T/C [22]: 0.07%; viability, T/C [23]: 0.05%; viability, T/C [24]: 0.1%; viability, T/C [27]: 0.07%; viability, T/C [28]: 0.08%; viability, T/C [29]: 0.23%; viability, T/C [30]: 0.13%
Cn1ncnc1[C@H]1c2n[nH]c(=O)c3cc(F)cc(c23)N[C@@H]1c1ccc(F)cc1 + CNCc1ccccc1-c1csc(C(C)Nc2nc(C)nc3cc(OC)c(OC)cc23)c1	> 100	> 100	> 100	< 0.316	< 0.316	90.4	86.4			84.3	76.3			72.1	64.9		0.1	0.16	0.08	0.13	viability, T/C (second compound 0.1 µM, first compound 0.000316 µM): 102%; viability, T/C (second compound 0.1 µM, first compound 0.001 µM): 98%; viability, T/C [36]: 99.7%; viability, T/C [31]: 91.3%; viability, T/C (second compound 0.316 µM, first compound 0.000316 µM): 102%; viability, T/C (second compound 0.316 µM, first compound 0.001 µM): 102%; viability, T/C [37]: 90.6%; viability, T/C [32]: 93.9%; viability, T/C (second compound 1 µM, first compound 0.000316 µM): 77.5%; viability, T/C (second compound 1 µM, first compound 0.001 µM): 64.6%; viability, T/C [38]: 73.2%; viability, T/C [33]: 71.4%; viability, T/C (second compound 3.16 µM, first compound 0.000316 µM): 0.11%; viability, T/C (second compound 3.16 µM, first compound 0.001 µM): 0.09%; viability, T/C [39]: 0.09%; viability, T/C [34]: 0.08%; viability, T/C (second compound 10 µM, first compound 0.000316 µM): 0.07%; viability, T/C (second compound 10 µM, first compound 0.001 µM): 0.07%; viability, T/C [40]: 0.08%; viability, T/C [35]: 0.07%
